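Five concentrations, 48 hours, 96-well plates. GI50 is the concentration that inhibits growth by half.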 Active and inactive are the calls of the source. Rule as the data show it: active = GI50 up to about 1.1 µM and inactive = higher.
How the values were obtained:
Experiment in all cases: inhibition of tumour cell growth, NCI panel, 48 h
BT-549 = system: BT-549
SF-268 = system: SF-268
OVCAR-4 = system: OVCAR-4
NCI-H226 = system: NCI-H226
DU-145 = system: DU-145
MDA-MB-231 = system: MDA-MB-231
HCT-116 = system: HCT-116
KM12 = system: KM12
MDA-N = system: MDA-N
CAKI-1 = system: CAKI-1
EKVX = system: EKVX
HT-29 = system: HT-29
NCI/ADR-RES = system: NCI/ADR-RES
SK-OV-3 = system: SK-OV-3
A549 = system: A549
SR = system: SR
A498 = system: A498
ACHN = system: ACHN
SF-295 = system: SF-295

Row | SMILES | GI50 (BT-549) | GI50 (SF-268) | GI50 (OVCAR-4) | GI50 (NCI-H226) | GI50 (DU-145) | GI50 (MDA-MB-231) | GI50 (HCT-116) | GI50 (KM12) | GI50 (MDA-N) | GI50 (CAKI-1) | GI50 (EKVX) | GI50 (HT-29) | GI50 (NCI/ADR-RES) | GI50 (SK-OV-3) | GI50 (A549) | GI50 (SR) | GI50 (A498) | GI50 (ACHN) | GI50 (SF-295)
1 | CSc1c(C#N)c(O)n(-c2ccc(Cl)cc2)c(=O)c1C(C)=O | 90.6 µM (inactive) | 61.7 µM (inactive) | 37.5 µM (inactive) | 26.9 µM (inactive) | 70.6 µM (inactive) | 88.3 µM (inactive) | 38.1 µM (inactive) | > 100 µM (inactive) | 55.5 µM (inactive) | 18.7 µM (inactive) | > 100 µM (inactive) | 34.8 µM (inactive) | 38.4 µM (inactive) | > 100 µM (inactive) | 50.2 µM (inactive) | 30.5 µM (inactive) | 29.3 µM (inactive) | – | –
2 | CC1=C(C(=O)Nc2ccccc2)C(c2ccc(C)o2)C(C#N)=C(SCc2ccccc2)N1 (stereo not given) | 43.4 µM (inactive) | > 100 µM (inactive) | > 72.3 µM (inactive) | > 100 µM (inactive) | > 100 µM (inactive) | > 100 µM (inactive) | 33.3 µM (inactive) | 10.9 µM (inactive) | 5.38 µM (inactive) | > 100 µM (inactive) | > 84.3 µM (inactive) | 34.9 µM (inactive) | 18.7 µM (inactive) | > 100 µM (inactive) | > 90.4 µM (inactive) | 4.75 µM (inactive) | > 81.5 µM (inactive) | > 100 µM (inactive) | 96.2 µM (inactive)
3 | N#Cc1cc2cc3c4c(c2oc1=O)CCCN4CCC3 | > 100 µM (inactive) | > 100 µM (inactive) | > 100 µM (inactive) | > 100 µM (inactive) | > 100 µM (inactive) | > 100 µM (inactive) | > 100 µM (inactive) | > 100 µM (inactive) | > 100 µM (inactive) | > 100 µM (inactive) | 5.02 µM (inactive) | > 100 µM (inactive) | > 100 µM (inactive) | > 100 µM (inactive) | > 100 µM (inactive) | > 100 µM (inactive) | > 100 µM (inactive) | > 100 µM (inactive) | > 100 µM (inactive)
4 | C/C(=N\NC(=S)NC(C)(C)C)c1ccccn1 | 3.1 µM (inactive) | 1.39 µM (inactive) | 4.1 µM (inactive) | 0.0675 µM (active) | 1.69 µM (inactive) | < 0.0378 µM (active) | < 0.01 µM (active) | 0.574 µM (active) | 0.131 µM (active) | < 0.0333 µM (active) | – | – | < 0.01 µM (active) | 0.305 µM (active) | 0.248 µM (active) | < 0.01 µM (active) | 0.248 µM (active) | < 0.01 µM (active) | 0.589 µM (active)
5 | CCCCCCCCCCCCCCCCOP(=O)(O)OCC(NC(C)=O)C(=O)O (stereo not given) | 18.8 µM (inactive) | 31 µM (inactive) | 25.9 µM (inactive) | 76 µM (inactive) | > 100 µM (inactive) | 22.9 µM (inactive) | 36.4 µM (inactive) | – | 54.2 µM (inactive) | 57 µM (inactive) | > 100 µM (inactive) | > 100 µM (inactive) | > 100 µM (inactive) | > 100 µM (inactive) | > 100 µM (inactive) | 73.8 µM (inactive) | 32.4 µM (inactive) | > 100 µM (inactive) | 20.4 µM (inactive)
6 | COc1cccc(C2C3=C(COC3=O)Oc3cc4c(cc32)OCO4)c1 (stereo not given) | > 100 µM (inactive) | 0.0575 µM (active) | 0.424 µM (active) | 0.0611 µM (active) | 0.0375 µM (active) | 0.0718 µM (active) | 0.0264 µM (active) | < 0.0142 µM (active) | < 0.01 µM (active) | 0.0229 µM (active) | 0.177 µM (active) | 0.0309 µM (active) | 0.0168 µM (active) | 0.0414 µM (active) | 0.0412 µM (active) | < 0.0135 µM (active) | 0.0264 µM (active) | 0.0432 µM (active) | < 0.0303 µM (active)
7 | Fc1ccc2nc3n(c2c1)C(c1c(F)cccc1F)SC3 (stereo not given) | 70 µM (inactive) | > 100 µM (inactive) | 64.3 µM (inactive) | > 100 µM (inactive) | > 100 µM (inactive) | 72.6 µM (inactive) | 24.5 µM (inactive) | 39.4 µM (inactive) | 26.7 µM (inactive) | 35.2 µM (inactive) | – | 33.3 µM (inactive) | 31.6 µM (inactive) | 54.8 µM (inactive) | 58.3 µM (inactive) | 18.4 µM (inactive) | 65.5 µM (inactive) | 67.9 µM (inactive) | 46 µM (inactive)
8 | Oc1ccc(-c2nc3ccc(Cl)cc3s2)cc1 | 18.7 µM (inactive) | 17.2 µM (inactive) | – | 20 µM (inactive) | 17.3 µM (inactive) | 22.6 µM (inactive) | 16 µM (inactive) | 16.3 µM (inactive) | 18.8 µM (inactive) | 20.2 µM (inactive) | 16.2 µM (inactive) | 18.4 µM (inactive) | 23.4 µM (inactive) | 20.2 µM (inactive) | 20.8 µM (inactive) | 23.7 µM (inactive) | 20 µM (inactive) | 76.7 µM (inactive) | 19.3 µM (inactive)

From ChEMBL document CHEMBL1201862, “PubChem BioAssay data set” (2004)
